Test system: T cells isolated from mouse spleens
Experiment: T cell proliferation inhibition (CFSE flow cytometry, anti-CD3/anti-CD28 stimulation)
Assay type: cell-based
Conditions: mouse spleen T cells, 3 days; for inhibition at 0.01 µM / inhibition at 0.1 µM / inhibition at 1 µM / inhibition at 10 µM / inhibition at 30 µM / inhibition at 50 µM: Mus musculus, T-cell, 72 h, read-out: Proliferation inhibition rate (%)
Experimental: To verify the T cell proliferation inhibitory effect of the compounds according to the present invention, the following experiment was performed based on flow cytometry analysis using carboxyfluorescein diacetate succinimidyl ester (CFSE), a fluorescent dye that binds to intracellular molecules via covalent bonds.
Spleens were extracted from 7-week-old C57BL/6 mice, ground, and then separated into single cells using a strainer (40 μm pore size, SPL). Red blood cells were removed using ACK (Ammonium-Chloride-Potassium) lysis buffer to isolate white blood cells.
Finally, using a MACS Magnetic Stand and LS column, T cells were isolated from the spleen.
The T cells isolated from the spleen were resuspended in 1 mL of free medium (RPMI-1640+200 U/mL penicillin+200 μg/mL streptomycin), and 0.3 μL of CFSE (10 mM) was added. The mixture was incubated at 37° C. for 5 minutes.
Free medium (10 mL) was added to stop the reaction, and the cells were centrifuged to obtain the cell pellet.
RPMI 1640 medium containing 10% FBS, 100 U/mL penicillin, 100 μg/mL streptomycin, and resuspended the cells. The cells were then seeded into a 96-well plate at a density of 2×10^5 cells per well and activated with CD3 and CD28 antibodies (0.5 μg/mL each) to activate T cells.
The compound diluted in DMSO was added at concentrations of 10 nM, 100 nM, 1 μM, 10 μM, 30 μM, and 50 μM, with three wells per concentration, and cultured at 37° C. and 5% CO2 for three days. The cells were then analyzed using a FACS Canto instrument.
The proliferation inhibition rate (%) was calculated using the following formula: […]

Row | Compound | inhibition at 0.01 µM (compound 10 nM) | inhibition at 0.1 µM (compound 100 nM) | inhibition at 1 µM (compound 1 μM) | inhibition at 10 µM (compound 10 μM) | inhibition at 30 µM (compound 30 μM) | inhibition at 50 µM (compound 50 μM) | Proliferation inhibition rate (%) (compound 10 nM) | Proliferation inhibition rate (%) (compound 100 nM) | Proliferation inhibition rate (%) (compound 1 μM) | Proliferation inhibition rate (%) (compound 10 μM) | Proliferation inhibition rate (%) (compound 30 μM) | Proliferation inhibition rate (%) (compound 50 μM)
1 | CCNCCCCCCCCCCCCNC(=O)c1cccnc1N [Compound 98, 2-amino-N-(12-(ethylamino)dodecyl)nicotinamide] | -4.82% | -3.95% | 100% | 100% | 100% | 100% | – | – | – | – | – | –
2 | Nc1ncccc1C(=O)NCCCCCCCCCCCCN1CCN(C(=O)C2CC2)CC1 [Compound 99, 2-amino-N-(12-(4-(cyclopropanecarbonyl)piperazin-1-yl)dodecyl)nicotinamide] | -12.1% | 100% | 100% | 100% | 100% | 100% | – | – | – | – | – | –
3 | CC(C)(C)OC(=O)NC1CCN(CCCCCCCCCCCCNC(=O)c2cccnc2N)CC1 [Compound 101, tert-Butyl (1-(12-(2-aminonicotinamido)dodecyl)piperidin-4-yl) carbamate] | – | – | – | – | – | – | −0.15% | 100.00% | 100.00% | 100.00% | 100.00% | 100.00%
4 | CC1(C)CCN(CCCCCCCCCCCCNC(=O)c2cccnc2N)CC1 [Compound 102, 2-Amino-N-(12-(4,4-dimethylpiperidin-1-yl)dodecyl)nicotinamide] | -4.53% | 100% | 100% | 100% | 100% | 100% | – | – | – | – | – | –
5 | CCOC(=O)C1CCN(CCCCCCCCCCCCNC(=O)c2cccnc2N)CC1 [Compound 103, Ethyl 1-(12-(2-aminonicotinamido)dodecyl)piperidine-4-carboxylate] | -6.43% | 100% | 100% | 100% | 100% | 100% | – | – | – | – | – | –
6 | CC(C)N1CCN(CCCCCCCCCCCCNC(=O)c2cccnc2N)CC1 [Compound 104, 2-Amino-N-(12-(4-isopropylpiperazin-1-yl)dodecyl) nicotinamide] | – | – | – | – | – | – | 100.00% | 100.00% | 100.00% | 100.00% | 100.00% | 100.00%
7 | Cc1nn(CCCCCCCCCCCCNC(=O)c2cccnc2N)cc1Br [Compound 105, 2-Amino-N-(12-(4-bromo-3-methyl-1H-pyrazol-1-yl)dodecyl)nicotinamide] | 6.73% | 8.33% | 38.9% | 100% | 100% | 100% | – | – | – | – | – | –
8 | Nc1ncccc1C(=O)NCCCCCCCCCCCCn1ccc2ccc(I)cc21 [Compound 106, 2-Amino-N-(12-(6-iodo-1H-indol-1-yl)dodecyl)nicotinamide] | 0.44% | -1.9% | 0.44% | 100% | 100% | 100% | – | – | – | – | – | –
9 | Nc1ncccc1C(=O)NCCCCCCCCCCCCN1CCC(C(F)F)CC1 [Compound 107, 2-Amino-N-(12-(4-(difluoromethyl)piperidin-1-yl)dodecyl)nicotinamide] | -35.2% | 100% | 100% | 100% | 100% | 100% | – | – | – | – | – | –
10 | Nc1ncccc1C(=O)NCCCCCCCCCCCCN1CCC2(CC1)CC2 [Compound 108, N-(12-(6-Azaspiro[2.5]octan-6-yl)dodecyl)-2-aminonicotinamide] | 0.88% | 28.5% | 100% | 100% | 100% | 100% | – | – | – | – | – | –
11 | Nc1ncccc1C(=O)NCCCCCCCCCCCCn1ccc2c(Cl)c(I)cnc21 [Compound 109, 2-Amino-N-(12-(4-chloro-5-iodo-1H-pyrrolo[2,3-b]pyridin-1-yl)dodecyl)nicotinamide] | 0.15% | 8.48% | 20.9% | 100% | 100% | 100% | – | – | – | – | – | –
12 | C[C@@H]1CN(CCCCCCCCCCCCNC(=O)c2cccnc2N)C[C@H](C)O1 [Compound 110, 2-amino-N-(12-((2S,6R)-2,6-dimethylmorpholino)dodecyl)nicotinamide] | -36.7% | 100% | 100% | 100% | 100% | 100% | – | – | – | – | – | –
13 | CC(C)(C)OC(=O)N1CCN(CCCCCCCCCCCCNC(=O)c2cccnc2N)CC1 [Compound 111, tert-butyl-4-(12-(2-aminonicotinamido)dodecyl) piperazine-1-carboxylate] | – | – | – | – | – | – | 0.00% | 100.00% | 100.00% | 100.00% | 100.00% | 100.00%
14 | Nc1ncccc1C(=O)NCCCCCCCCCCCCN1CCN(CC2CCCCC2)CC1 [Compound 113, 2-amino-N-(12-(4-(cyclohexylmethyl)piperazin-1-yl)dodecyl)nicotinamide] | 11.1% | 100% | 100% | 100% | 100% | 100% | – | – | – | – | – | –
15 | Nc1ncccc1C(=O)NCCCCCCCCCCCCN1CCC(F)(F)CC1 [Compound 114, 2-amino-N-(12-(4,4-difluoropiperidin-1-yl)dodecyl)nicotinamide] | -18.3% | 26.2% | 100% | 100% | 100% | 100% | – | – | – | – | – | –
16 | Nc1ncccc1C(=O)NCCCCCCCCCCCCN1CCC(F)CC1 [Compound 115, 2-amino-N-(12-(4-fluoropiperidin-1-yl)dodecyl)nicotinamide] | -11.4% | 100% | 100% | 100% | 100% | 100% | – | – | – | – | – | –
17 | COC(=O)C1CCN(CCCCCCCCCCCCNC(=O)c2cccnc2N)C1 (stereo not drawn) [Compound 116, Methyl-1-(12-(2-aminonicotinamido)dodecyl) pyrrolidine-3-carboxylate] | – | – | – | – | – | – | −1.90% | 26.17% | 100.00% | 100.00% | 100.00% | 100.00%
18 | CC(C)(C)OC(=O)N[C@@H]1CCCN(CCCCCCCCCCCCNC(=O)c2cccnc2N)C1 [Compound 117, tert-butyl-(R)-(1-(12-(2-aminonicotinamido)dodecyl)piperidin-3-yl) carbamate] | – | – | – | – | – | – | −15.79% | 100.00% | 100.00% | 100.00% | 100.00% | 100.00%
19 | CN1CCN(CCCCCCCCCCCCNC(=O)c2cccnc2Cl)CC1 [Compound 118, 2-chloro-N-(12-(4-methylpiperazin-1-yl)dodecyl)nicotinamide] | 4.24% | 4.82% | 12.6% | 34.5% | 88.6% | 100% | – | – | – | – | – | –
20 | Nc1ncccc1C(=O)NCCCCCCCCCCCCN1CCOC1=O [Compound 127, 2-amino-N-(12-(2-oxooxazolidin-3-yl)dodecyl) nicotinamide] | – | – | – | – | – | – | −2.24% | 10.30% | 15.07% | 100.00% | 100.00% | 100.00%
21 | Nc1ncccc1C(=O)NCCCCCCCCCCCCNC1CCOC1 (stereo not drawn) [Compound 128, 2-amino-N-(12-((tetrahydrofuran-3-yl)amino)dodecyl) nicotinamide] | – | – | – | – | – | – | −7.16% | 100.00% | 100.00% | 100.00% | 100.00% | 100.00%
